Assay results: ChEMBL document CHEMBL1833802, “Substitution of the GalNAc-α-O-Thr¹¹ residue in drosocin with O-linked glyco-peptoid residue: effect on antibacterial activity and conformational change” (2011)
Active and inactive are the calls of the source. The calls are words filed in the database; no cut-off is given here. Numbered stars: 1 amine (or outer) side, 2 acyl side, 3 side chain; on linkers, the order of the positions; unused ones are H or OH. Square brackets hold non-standard residues; d marks the D form. Peptide text beside a SMILES is read from it. X1 = CC(=O)N[C@H]1[C@@H](O[C@@H](C)CN(CC(=O)[*:2])[*:1])O[C@H](CO)[C@H](O)[C@@H]1O; X2 = CC(=O)N[C@H]1[C@@H](O[C@H](C)CN(CC(=O)[*:2])[*:1])O[C@H](CO)[C@H](O)[C@@H]1O; X3 = CC(=O)N[C@H]1[C@@H](OCCN(CC(=O)[*:2])[*:1])O[C@H](CO)[C@H](O)[C@@H]1O

What was measured:
Escherichia coli [1] = test: Antibacterial activity against clinical isolate Escherichia coli KCTC 1682 after overnight incubation by radial diffusion assay; format: functional, organism-based
Escherichia coli [2] = test: Antibacterial activity against clinical isolate Escherichia coli KCTC 1682 at 50 uM after overnight incubation by radial diffusion assay relative to drosocin D; format: functional

SMILES | Activity (Escherichia coli [1]) | fold change (FC) (Escherichia coli [2])
CC[C@H](C)[C@H](NC(=O)[C@@H]1CCCN1C(=O)[C@H](CCCNC(=N)N)NC(=O)[C@@H]1CCCN1C(=O)[C@H](Cc1cnc[nH]1)NC(=O)[C@H](CO)NC(=O)CN(C[C@H](C)O[C@H]1O[C@H](CO)[C@H](O)[C@H](O)[C@H]1NC(C)=O)C(=O)[C@H](C)NC(=O)[C@H](CCCNC(=N)N)NC(=O)[C@@H]1CCCN1C(=O)[C@@H](NC(=O)[C@H](Cc1ccc(O)cc1)NC(=O)[C@@H]1CCCN1C(=O)[C@H](CCCNC(=N)N)NC(=O)[C@@H]1CCCN1C(=O)[C@H](CCCCN)NC(=O)CN)[C@@H](C)O)C(=O)N[C@@H](CCCNC(=N)N)C(=O)N[C@H](C(=O)O)C(C)C (H-GKPRPYTPRA[X1]SHPRPIRV-OH) | Dose-dependent effect | 6
CC[C@H](C)[C@H](NC(=O)[C@@H]1CCCN1C(=O)[C@H](CCCNC(=N)N)NC(=O)[C@@H]1CCCN1C(=O)[C@H](Cc1cnc[nH]1)NC(=O)[C@H](CO)NC(=O)CN(C[C@@H](C)O[C@H]1O[C@H](CO)[C@H](O)[C@H](O)[C@H]1NC(C)=O)C(=O)[C@H](C)NC(=O)[C@H](CCCNC(=N)N)NC(=O)[C@@H]1CCCN1C(=O)[C@@H](NC(=O)[C@H](Cc1ccc(O)cc1)NC(=O)[C@@H]1CCCN1C(=O)[C@H](CCCNC(=N)N)NC(=O)[C@@H]1CCCN1C(=O)[C@H](CCCCN)NC(=O)CN)[C@@H](C)O)C(=O)N[C@@H](CCCNC(=N)N)C(=O)N[C@H](C(=O)O)C(C)C (H-GKPRPYTPRA[X2]SHPRPIRV-OH) | Active | 
CC[C@H](C)[C@H](NC(=O)[C@@H]1CCCN1C(=O)[C@H](CCCNC(=N)N)NC(=O)[C@@H]1CCCN1C(=O)[C@H](Cc1cnc[nH]1)NC(=O)[C@H](CO)NC(=O)CN(CCO[C@H]1O[C@H](CO)[C@H](O)[C@H](O)[C@H]1NC(C)=O)C(=O)[C@H](C)NC(=O)[C@H](CCCNC(=N)N)NC(=O)[C@@H]1CCCN1C(=O)[C@@H](NC(=O)[C@H](Cc1ccc(O)cc1)NC(=O)[C@@H]1CCCN1C(=O)[C@H](CCCNC(=N)N)NC(=O)[C@@H]1CCCN1C(=O)[C@H](CCCCN)NC(=O)CN)[C@@H](C)O)C(=O)N[C@@H](CCCNC(=N)N)C(=O)N[C@H](C(=O)O)C(C)C (H-GKPRPYTPRA[X3]SHPRPIRV-OH) | Active | 
